*1 amine or outer side, *2 acyl side, *3 side chain or, on linkers, in order; H or OH if unused. Where a SMILES comes first, the peptide text is derived from it. Bridges are numbered along the chain shown (N, C = ends). [ ]: non-standard residue; d: D form. NHCH2CMe2S = CC(C)(CN[*:1])S[*:2]
Target: T1, bovine pancreatic trypsin (Bos taurus, UniProt P00760)
T1 construct: from tissue; host or cells: bovine pancreas
T1 sequence (P00760 24-246): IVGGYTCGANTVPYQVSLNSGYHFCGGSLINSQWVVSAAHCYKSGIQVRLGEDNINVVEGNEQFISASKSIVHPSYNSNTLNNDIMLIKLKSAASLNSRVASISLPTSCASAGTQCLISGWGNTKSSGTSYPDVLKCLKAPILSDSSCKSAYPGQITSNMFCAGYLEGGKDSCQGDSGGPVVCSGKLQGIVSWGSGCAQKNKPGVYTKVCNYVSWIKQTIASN
Assay: Trypsin stability assay (Table 10)
Format: in vitro ADME
Conditions: bovine pancreatic trypsin solution; bovine pancreatic trypsin 2.5 μg/mL, 37° C., One Phase Decay; read-out: Stability (t1/2, mins) Trypsin
Excerpt: FIG. 20 is a series of graphs showing the stability of selected peptides in a trypsin (left-hand graphs) and plasma (right-hand graphs) stability assay (data normalised to concentration of each peptide at t=0, determined by LCMS, within each substrate; data analysed using One Phase Decay nonlinear regression in Prism software and each experiment performed in triplicate; mean+/−SEM);
Plasma was collected in house from adult mixed-gender Wistar rats, prepared using 2% EDTA as per standard practice. Peptides were added to rat plasma samples at 37° C. (in a water bath) with final concentrations of 100 uM (1:9 peptide in water:plasma) and a 50 μL sample was immediately taken and precipitated in 150 μL cold acetonitrile (9:1 ACN:water). This sample became the baseline, or t=0 min sample. […] At each time point, the 50 μL of plasma collected was immediately added to cold ACN. Each collected plasma sample in ACN was directly vortexed for 30 seconds and then centrifuged at room temperature (13K rpm, 5 min). 150 μL of the supernatant was taken and directly placed in glass HPLC vials for LCMS analysis.
The protocol for the trypsin stability assay was very similar to the plasma stability assay discussed above. The only difference was the use of a trypsin solution (bovine pancreatic trypsin 2.5 μg/mL in NH4HCO3 buffer, pH approx. 8-8.5, 37° C.) instead of rat plasma. Volumes, times and preparation protocols were exactly as mentioned above.

CC1(C)CNC(=O)C[C@@H](NC(=O)[C@@H](N)Cc2ccc(O)cc2)C(=O)NCC(=O)N[C@@H](Cc2ccccc2)C(=O)N[C@H](C(=O)N[C@@H](CCCNC(=N)N)C(=O)N[C@@H](CCCNC(=N)N)C(N)=O)CSS1 [DP-7-12, c(Tyr-D(Asp)-Gly-Phe-SSa-Arg-Arg)] (H-Y[dD]GFCRR-NH2; linker 2-5 via NHCH2CMe2S)
half-life: < 0.01 min
